Source: US5132424A, “Pyrazolo-pyrrolo-pyrimidine-diones” (The Upjohn Company, priority 1991, dated 1992)

Legend:
[1] = system: ACAT enzyme; assay: ACAT Inhibition Assay (inhibition of cholesterol esterification in cultured Fu5AH rat hepatoma cells); format: cell-based; set-up: key to Activity: Active: Compounds with ACAT inhibiting activity equal to, or greater than, that of chloropromazine are declared active; details: for % Inhib. of Chol. Esterf.: Fu5AH cells, 18 hours; for Activity: compared with chlorpromazine
Text: A standard in vitro test system designed to identify compounds capable of inhibitory the ACAT enzyme in cultured Fu5AH rat hepatoma cells which was used to test the compounds of this invention, among others, is described hereinbelow.
Since the ACAT enzyme in Fu5AH cells is similar if not identical to the ACAT enzyme in arterial tissue in valuable, warm-blooded animals, including humans, the Fu5AH cell test represents a more efficient, simplified and economical means of screening for ACAT inhibitors than similar assays which depend upon the use of arterial tissue and arterial subfractions as the source of the ACAT enzyme.
For our in vitro test the Fu5AH rat hepatoma cell line was selected as our source of the ACAT enzyme since this particular cell line mimicked important characteristics of human and valuable animal arterial cells during the development of atherosclerosis. The Fu5AH cells accumulate cholesterol extensively when incubated with hyperlipemic plasma proteins; more importantly, Fu5HA cells accumulated the cholesterol predominantly as the esterified form through the action of the ACAT enzyme. See Rothblat, G. H., "Cholesteryl Ester Metabolism in Tissue Culture Cell. I. Accumulation in Fu5AH Rat Hepatoma Cells", Lipids, 9, (1974) page 526.
The Fu5AH cells used in our in vitro assay were first acquired from G. H. Rothblat, supra, of the Medical College of Pa.
The Fu5AH rat hepatoma cell-line was derived from the Reuber H-35 rat hepatoma. (See Reuber, M.D., "A Transplantable Bilesecreting Hepatocellular Carcinoa in the Rat", J. Natl., Cancer Inst., 26 (1961), page 891. The cell-line is maintained in Eagle's Minimal Essential Medium (MEM, GiBCO) supplemented with 5% bovine fetal calf serum. Incubation is at 36° C. in an atmosphere of 5% CO2 in air (Hotpack, Model 351922). Cells from stock cultures, grown to confluency in 25 cm^2 flasks (Falcon) containing 10 ml. medium, are detached with 0.25% trypsin in 1% ethylenediaminetetraacetic acid (EDTA) (Gibco), diluted 1:10 with MEM and mixed by agitation through a pipette which serves to disrupt the cellular clumps. Stock cultures are replenished with fresh medium at 3 to 4 day intervals.
One ml. aliquots of the diluted stock suspension described above are then transferred to 60 mm. dishes (Falcon) containing four ml. MEM and the seeded cells are allowed to grow to confluence (three days). At confluence, the medium is removed by aspiration and the cells are washed once with MEM. Five ml. of MEM supplemented with 5% hyperlipemic rabbit serum (HRS) (HRS is obtained from male New Zealane rabbits fed Purina Chow® rabbit feed supplemented with 1% cholesterol and 3% peanut oil (w/w/w/) for two to three weeks. Pooled sera from two or more rabbits are filtered through a 0.45 mμ filter (Nalgene) and stored frozen in convenient aliquots until used) and containing 1μ Ci/ml of ^3 H-cholesterol are then added to the dishes as the experimental (assay) medium. The experimental medium is labeled with 1,2-^3 H(N)-cholesterol (sp. act. approx. 40-60 Ci/mol, New Zealand Nuclear Corp.) prior to its addition to the confluent cultures and is prepared as follows. Five ml. of HRS is diluted with approximately 20 ml of MEM and the mixture is labeled by the addition of 100 μCi ^3 H-cholesterol dissolved in 100 μl absolute ethyl alcohol. The resulting mixture is then incubated for four hours at 36° C. to permit equilibration of the labeled cholesterol with the serum lipoprotein-cholesterol. After the equilibration period, the mixture is diluted to 100 ml. with MEM and used as the labeled assay medium. Following the addition of the labeled medium to the dishes, dimethylsulfoxide solutions of the test substances and the positive standard chloropromazine HCl (1 mg/ml) are added to the cultures in volumes of 25, 50, […]; control cultures receive equivalent volumes of dimethylsufoxide alone. […]

[2] = system: ACAT enzyme; details: known drug; cited from earlier work

In the case of `O=C1c2c(c(=O)n3nc(-c4ccccc4)cc3n2CC(O)c2ccccc2)CN1C1CCCCC1` (stereo not drawn) [Example 14, 6-Cyclohexyl-6,7-dihydro-4-(2-hydroxy-2-phenylethyl)-2-phenyl-4H-oyrazolo[1,5-a] pyrrolo[3,4-d]pyrimidine-5,8-dione], the “% Inhib. of Chol. Esterf.” value ([1]; 5.0 ug/ml) is reported as 49.6%, the Activity ([1]; 5.0 ug/ml) is reported as “Active” and the “% Inhib. of Chol. Esterf.” value ([1]; 10.0 ug/ml) is reported as 65.9%. The Activity ([1]; 10.0 ug/ml) was “Active”, the “% Inhib. of Chol. Esterf.” value ([1]; 15.0 ug/ml) was 40.2% and the Activity ([1]; 15.0 ug/ml) was “Inactive”.

With `O=C1c2c(c(=O)n3nc(-c4ccccc4)cc3n2Cc2ccccc2)CCN1C1CCCCC1` [Example 9, 6-Cyclohexyl-2-phenyl-4-(phenylmethyl)-5,6,7,8-tetrahydro-4H-pyrazolo[1,5-a]pyrido[3,4-d]pyrimidine-5,9-dione] the “% Inhib. of Chol. Esterf.” value ([1]; 5.0 ug/ml) was 53.2%, the Activity ([1]; 5.0 ug/ml) was “Active” and the “% Inhib. of Chol. Esterf.” value ([1]; 10.0 ug/ml) was 82.1%. For the same compound, the Activity ([1]; 10.0 ug/ml) was “Active”, the “% Inhib. of Chol. Esterf.” value ([1]; 15.0 ug/ml) was 89.8% and the Activity ([1]; 15.0 ug/ml) was “Active”.

In the case of `O=C(Cn1c2c(c(=O)n3nc(-c4ccc(Cl)cc4)cc13)CN(C1CCCCC1)C2=O)c1ccccc1` [Example 11, 4-(Benzoylmethyl)-2-(4-chlorophenyl)-6-cyclohexyl-6,7-dihydro-4H-pyrazolo[1,5-a]pyrrolo[3,4-d]pyrimidine-5,8-dione], the “% Inhib. of Chol. Esterf.” value ([1]; 5.0 ug/ml) is reported as 78.2%, the Activity ([1]; 5.0 ug/ml) is reported as “Active” and the “% Inhib. of Chol. Esterf.” value ([1]; 10.0 ug/ml) is reported as 84.5%. For the same compound, the Activity ([1]; 10.0 ug/ml) was “Active”, the “% Inhib. of Chol. Esterf.” value ([1]; 25.0 ug/ml (so in the source)) was 89.2% and the Activity ([1]; 25.0 ug/ml (so in the source)) was “Active”.

For `COc1ccc([C@@H]2Sc3ccccc3N(CCN(C)C)C(=O)[C@@H]2OC(C)=O)cc1` [diltiazem], the “ACAT enzyme inhibition (in words)” value [2] is given as “inhibit the ACAT enzyme”.

In the case of `O=C1c2c(c(=O)n3nc(-c4ccc(O)cc4)cc3n2Cc2ccccc2)CN1C1CCCCC1` [Example 16, 6-Cyclohexyl-6,7-dihydro-2-(4-hydroxyphenyl)-4-phenyl-methyl-4H-pyrazolo[1,5-a]pyrrolo[3,4-d]pyrimidine-5,8-dione], the “% Inhib. of Chol. Esterf.” value ([1]; 5.0 ug/ml) is reported as 4.3%, the Activity ([1]; 5.0 ug/ml) is reported as “Inactive” and the “% Inhib. of Chol. Esterf.” value ([1]; 10.0 ug/ml) is reported as 32.7%. For the same compound, the Activity ([1]; 10.0 ug/ml) was “Inactive”, the “% Inhib. of Chol. Esterf.” value ([1]; 15.0 ug/ml) was 66.5% and the Activity ([1]; 15.0 ug/ml) was “Active”.

In the case of `CCCCCCn1c2c(c(=O)n3nc(-c4ccccc4)cc13)CN(C1CCCCC1)C2=O` [Example 3, 6-Cyclohexyl-6,7-dihydro-4-hexyl-2-phenyl-4H-pyrazolo[1,5-a]pyrrolo[3,4-d]pyrimidine-5,8-dione], the “% Inhib. of Chol. Esterf.” value ([1]; 5.0 ug/ml) is reported as 43.4%, the Activity ([1]; 5.0 ug/ml) is reported as “Active” and the “% Inhib. of Chol. Esterf.” value ([1]; 10.0 ug/ml) is reported as 48.2%. The Activity ([1]; 10.0 ug/ml) was “Active”, the “% Inhib. of Chol. Esterf.” value ([1]; 15.0 ug/ml) was 49.2% and the Activity ([1]; 15.0 ug/ml) was “Active”.

In the case of `CC(C)NC[C@H](O)COc1cccc2ccccc12` (racemic) [propanolol], the “ACAT enzyme inhibition (in words)” value [2] is listed as “ACAT enzyme inhibiting activity”.

With `O=C1c2c(c(=O)n3nc(-c4ccccc4)cc3n2Cc2ccccc2)CN1Cc1ccccc1` [Example 8, 4,6-Bis(phenylmethyl)-6,7-dihydro-2-phenyl-4H-pyrazolo[1,5-a]pyrrolo[3,4-d]pyrimidine-5,8-dione] the “% Inhib. of Chol. Esterf.” value ([1]; 5.0 ug/ml) was 60.8%, the Activity ([1]; 5.0 ug/ml) was “Active” and the “% Inhib. of Chol. Esterf.” value ([1]; 10.0 ug/ml) was 89.5%. For the same compound, the Activity ([1]; 10.0 ug/ml) was “Active”, the “% Inhib. of Chol. Esterf.” value ([1]; 15.0 ug/ml) was 92.3% and the Activity ([1]; 15.0 ug/ml) was “Active”.

In the case of `C=CCOc1ccc(-c2cc3n(Cc4ccccc4)c4c(c(=O)n3n2)CN(C2CCCCC2)C4=O)cc1` [Example 15, 6-Cyclohexyl-6,7-dihydro-2-[4-(2-propenyloxy)phenyl]-4-phenylmethyl-4H-pyrazolo[1,5-a]pyrrolo[3,4-d]pyrimidine-5,8-dione], the “% Inhib. of Chol. Esterf.” value ([1]; 5.0 ug/ml) is reported as 36.0%, the Activity ([1]; 5.0 ug/ml) is reported as “Active” and the “% Inhib. of Chol. Esterf.” value ([1]; 10.0 ug/ml) is reported as 65.3%. The Activity ([1]; 10.0 ug/ml) was “Active”, the “% Inhib. of Chol. Esterf.” value ([1]; 15.0 ug/ml) was 84.3% and the Activity ([1]; 15.0 ug/ml) was “Active”.

For `O=C1c2c(c(=O)n3ncc(-c4ccccc4)c3n2Cc2ccccc2)CN1C1CCCCC1` [Example 10, 6-Cyclohexyl-6,7-dihydro-3-phenyl-4-(phenylmethyl)-4H-pyrazolo-[1,5-a]pyrrolo[3,4-d]-pyrimidine-5,8-dione], the “% Inhib. of Chol. Esterf.” value ([1]; 5.0 ug/ml) was 34.4%, the Activity ([1]; 5.0 ug/ml) was “Active” and the “% Inhib. of Chol. Esterf.” value ([1]; 10.0 ug/ml) was 20.9%. For the same compound, the Activity ([1]; 10.0 ug/ml) was “Inactive”, the “% Inhib. of Chol. Esterf.” value ([1]; 15.0 ug/ml) was 9.1% and the Activity ([1]; 15.0 ug/ml) was “Inactive”.

For `CN1C(=O)CN=C(c2ccccc2)c2cc(Cl)ccc21` [diazepam], the “ACAT enzyme inhibition (in words)” value [2] is given as “ACAT enzyme inhibiting activity”.

In the case of `CCOc1ccc(-c2cc3n(Cc4ccccc4)c4c(c(=O)n3n2)CN(C2CCCCC2)C4=O)cc1` [Example 6, 6-Cyclohexyl-6,7-dihydro-2-(4-ethoxyphenyl)-4-(phenylmethyl)-(4H)-pyrazolo[1,5-a]pyrrolo[3,4-d]pyrimidine-5,8-dione], the “% Inhib. of Chol. Esterf.” value ([1]; 5.0 ug/ml) is reported as 49.8%, the Activity ([1]; 5.0 ug/ml) is reported as “Active” and the “% Inhib. of Chol. Esterf.” value ([1]; 10.0 ug/ml) is reported as 75.4%. The Activity ([1]; 10.0 ug/ml) was “Active”, the “% Inhib. of Chol. Esterf.” value ([1]; 15.0 ug/ml) was 87.2% and the Activity ([1]; 15.0 ug/ml) was “Active”.

With `O=C1c2[nH]c3cc(-c4ccccc4)nn3c(=O)c2CN1C1CCCCC1` [6-Cyclohexyl-4,7-dihydro-2-phenyl-5H-pyrazolo[1,5-a]pyrrolo[3,4-d]pyrimidine-5,8(6H)-dione, reference compound] the “activity in the ACAT enzyme screen (in words)” value ([1]; starting material) was “inactive”.

With `O=C1c2c(c(=O)n3nc(-c4ccccc4)cc3n2Cc2ccccc2)CN1c1ccccc1` [Example 7, 6,7-Dihydro-2,6-diphenyl-4-(phenylmethyl)-4H-pyrazolo[1,5-a]pyrrolo[3,4-d]-pyrimidine-5,8-dione] the “% Inhib. of Chol. Esterf.” value ([1]; 5.0 ug/ml) was 21.2%, the Activity ([1]; 5.0 ug/ml) was “Active” and the “% Inhib. of Chol. Esterf.” value ([1]; 10.0 ug/ml) was 17.6%. For the same compound, the Activity ([1]; 10.0 ug/ml) was “Inactive”, the “% Inhib. of Chol. Esterf.” value ([1]; 15.0 ug/ml) was 15.0% and the Activity ([1]; 15.0 ug/ml) was “Inactive”.

In the case of `COc1ccc(CCN(C)CCCC(C#N)(c2ccc(OC)c(OC)c2)C(C)C)cc1OC` (stereo not drawn) [verapamil], the “ACAT enzyme inhibition (in words)” value [2] is listed as “inhibit the ACAT enzyme”.

In the case of `COC(=O)C1=C(C)NC(C)=C(C(=O)OC)C1c1ccccc1[N+](=O)[O-]` [nifedipine], the “ACAT enzyme inhibition (in words)” value [2] is given as “inhibit the ACAT enzyme”.
